# In publication PMC10673058, “In Silico and In Vitro Search for Dual Inhibitors of the Trypanosoma brucei and Leishmania major Pteridine Reductase 1 and Dihydrofolate Reductase” (Molecules, 2023):
# Like-named read-outs stand apart in the source and are kept apart here.
# How the values were obtained:
# [1] = target: T1, TbPTR1 (Trypanosoma brucei brucei, UniProt O76290); assay: Spectrophotometric enzyme inhibition assay, recombinant TbPTR1; assay type: biochemical; settings: read-out: IC50 TbPTR1
# T1 construct: His6 (N); made in house; host or cells: E. coli BL21 (DE3), vector pET 15b::TbPTR1His (strain from the group of M. Paola Costi, Modena)
# T1 sequence (O76290 1-268): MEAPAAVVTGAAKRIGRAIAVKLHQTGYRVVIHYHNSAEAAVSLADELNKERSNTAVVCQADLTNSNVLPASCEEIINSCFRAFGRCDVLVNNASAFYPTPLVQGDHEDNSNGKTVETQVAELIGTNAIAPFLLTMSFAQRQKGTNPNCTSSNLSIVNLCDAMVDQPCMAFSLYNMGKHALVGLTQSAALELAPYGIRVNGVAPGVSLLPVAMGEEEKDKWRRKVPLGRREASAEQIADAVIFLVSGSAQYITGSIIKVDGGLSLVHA
# Experimental: (§1) Based on the in vitro assays against TbPTR1 and LmPTR1 performed in the previous works of our group, as well as the in silico results obtained from the current study, a total of 47 natural products were tested against the target enzymes. […] The concentration-effect curves for the IC50 and EC50 values that were obtained in the present study are depicted in Supplementary Materials Figures S21–S42.
# The used TbPTR1 concentration was 3.23 mg/mL, with a specific activity of 0.03 U/mg. The measurements were carried out using the enzyme’s individual saturating concentrations for folic acid (8 μM) and NADPH (150 μM) in Buffer A (50 mM Tris/HCl (pH 7.6), 250 mM NaCl). For LmPTR1, the protein concentration was 5.02 mg/mL and the specific activity was calculated to be 0.29 U/mg. Buffer B (50 mM NaH2PO4 (pH 6.0), 100 mM NaCl) was used for all LmPTR1 measurements and the saturating concentrations amounted to 50 μM of folic acid and 200 μM of NADPH. The saturating conditions of the PTR1 enzymes were determined using the diagrams depicted in Figures S16 and S18 in the Supplementary Materials.
# (§2) The inhibitory effect of the selected natural products was investigated by testing the DMSO solution of each compound at a constant concentration of 100 μM for TbPTR1 and 50 μM for LmPTR1, TbDHFR, and LmDHFR, as well as hDHFR. The concentrations of the cofactor and substrates were set at the previously determined saturating conditions (Section 4.2.5). Each test compound was incubated for 20 min with the respective enzyme and NADPH to ensure a sufficient interaction time before the reaction was induced by the addition of the substrate. The enzymatic activity was determined in duplicates and correlated with a reference that contained just DMSO, instead of an inhibitor. The enzymatic activity of the reference was normalized to 100%.
# (§3) The half-maximal inhibitory concentration (IC50) of the natural products was determined in triplicate, using at least five different inhibitor concentrations against a reference containing no inhibitor. The enzymatic activity was documented and analyzed and the IC50 value was determined by nonlinear regression using GraphPad Prism 9 (GraphPad Software Inc., La Jolla, CA, USA).
# [2] = target: T2, TbDHFR (Trypanosoma brucei brucei, UniProt Q27783); assay: Spectrophotometric enzyme inhibition assay, recombinant TbDHFR; assay type: biochemical
# T2 construct: pET 11D::TbDHFRHis vector design for the recombinant overexpression of TbDHFR in E. coli; His; made in house; host or cells: E. coli BL21(DE3), vector pET 11D::TbDHFRHis
# T2 sequence (Q27783 28-238 limits assumed): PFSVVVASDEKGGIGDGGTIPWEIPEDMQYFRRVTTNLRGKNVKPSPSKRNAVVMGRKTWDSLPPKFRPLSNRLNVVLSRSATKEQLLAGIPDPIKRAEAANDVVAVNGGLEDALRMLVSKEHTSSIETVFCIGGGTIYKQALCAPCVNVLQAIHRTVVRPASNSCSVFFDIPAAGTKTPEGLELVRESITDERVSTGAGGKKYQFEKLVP
# Experimental: Based on the in vitro assays against TbPTR1 and LmPTR1 performed in the previous works of our group, as well as the in silico results obtained from the current study, a total of 47 natural products were tested against the target enzymes.
# The saturating conditions for TbDHFR and LmDHFR were determined using the diagrams depicted in Figures S17 and S19 in the Supplementary Materials.
# as §2, §3
# [3] = target: T3, LmDHFR (Leishmania major, UniProt P07382); assay: Spectrophotometric enzyme inhibition assay, recombinant LmDHFR; assay type: biochemical
# T3 construct: The DNA fragment encoding LmDHFR was amplified by Phusion DNA polymerase; His6 (N); made in house; host or cells: E. coli BL21(DE3), vector pET 11D::LmDHFRHis
# T3 sequence (P07382 26-229 limits assumed): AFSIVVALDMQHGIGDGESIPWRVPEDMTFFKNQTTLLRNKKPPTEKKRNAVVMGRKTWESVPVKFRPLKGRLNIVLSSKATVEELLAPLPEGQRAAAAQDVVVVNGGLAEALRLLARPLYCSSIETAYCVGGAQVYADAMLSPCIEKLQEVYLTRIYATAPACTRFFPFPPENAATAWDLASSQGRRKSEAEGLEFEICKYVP
# Experimental: as §1
# The TbDHFR concentration was measured to be 0.04 mg/mL and a specific activity of 38.1 U/mg was calculated. The concentration of LmDHFR was 0.05 mg/mL with a specific activity of 56.2 U/mg. All measurements were carried out using the saturating concentrations for dihydrofolate (50 μM) and NADPH (150 μM) in Buffer C (50 mM Tris/HCl (pH 7.6), 250 mM NaCl, 10 mM BME). The saturating conditions for TbDHFR and LmDHFR were determined using the diagrams depicted in Figures S17 and S19 in the Supplementary Materials.
# as §2, §3
# [4] = target: T4, hDHFR (Homo sapiens, UniProt P00374); assay: Spectrophotometric enzyme inhibition assay, recombinant hDHFR (selectivity); assay type: biochemical
# T4 construct: His; host or cells: E. coli BL21 (DE3), vector pET 15b::hDHFRHis
# T4 sequence (P00374 1-187): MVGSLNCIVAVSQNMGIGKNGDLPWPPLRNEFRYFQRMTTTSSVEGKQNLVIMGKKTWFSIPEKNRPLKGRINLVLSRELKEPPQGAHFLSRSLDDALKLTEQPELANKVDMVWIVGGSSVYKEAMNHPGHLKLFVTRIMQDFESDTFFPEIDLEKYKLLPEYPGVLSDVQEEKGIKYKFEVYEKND
# Experimental: For 15 compounds, there was enough substance available to be tested in selectivity studies against hDHFR.
# The used hDHFR concentration was 0.64 mg/mL, with a specific activity of 0.62 U/mg. All measurements were carried out using the saturating concentrations for dihydrofolate (100 μM) and NADPH (50 μM) in Buffer C (50 mM Tris/HCl (pH 7.6), 250 mM NaCl, 10 mM BME). The saturating conditions for hDHFR were determined using the diagrams depicted in Figure S20 in the Supplementary Materials.
# as §2, §3
# [5] = tested on: T. brucei; parameters: method as in PMID 27077842; settings: read-out: IC50 antitrypanosomal activity in T. brucei cell assays; cited from earlier work
IC50 ([2]; read-out: IC50 TbDHFR) [µM],IC50 ([3]; read-out: IC50 LmDHFR) [µM],EC50 ([4]; read-out: EC50 hDHFR (footnote a)) [µM],"inhibition at 50 µM ([4]; set compound concentration of 50 μM, read-out: relative inhibition of hDHFR) [%]",SMILES,IC50 [1] [µM],IC50 [2] [µM],EC50 [3] [µM],IC50 [4] [µM],IC50 [5] [µM]
,,,,"O=C(/C=C/c1ccc(O)c(O)c1/C=C/c1ccc(O)c(O)c1)O[C@H](Cc1ccc(O)c(O)c1)C(=O)O [Compound 8, salvianolic acid A]",85.1,2.5,18.7,> 50,3.1
9.4,14,31.6,> 50,"C=C(C)[C@H](CC=C(C)C)Cc1c(O)cc(O)c2c1O[C@H](c1ccc(O)cc1O)CC2=O [Compound 9, sophoraflavanone G]",31.8,,,,1.4
